Data published in US20240360153A1 (Regeneron Pharmaceuticals, Inc., priority 2023, published 2024).

Legend:
[1] = tested on: S6K1 (Thr389) phosphorylation (mTORC1 activity) in wild-type (WT) 293T cells; assay: Inhibition of S6K1 (Thr389) phosphorylation in wild-type 293T cells (ELISA); assay type: cell-based, human; conditions: for IC50: Homo sapiens, HEK-293T, 2 h, wild-type 293T cells, 2 hours treatment; for fold lower potency compared with RAD001 (by IC50) / extent of inhibition of S6K1 (Thr389) phosphorylation: wild-type cells; for extent of inhibition of S6K1 (Thr389) phosphorylation: with increasing concentrations
In short: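 WT 293T cells in DMEM + 10% FBS, grown 24 h to ~80% confluence, then treated 2 h at 37 °C in duplicate with compounds over an 8–11-point range from 0.001 pM to 10 μM. DMSO vehicle served as negative control. Phospho-S6K1 (Thr389) measured by ELISA.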

[2] = tested on: S6K1 (Thr389) phosphorylation (mTORC1 activity) in FKBP12 knock-out 293T cells; assay: Inhibition of S6K1 (Thr389) phosphorylation in FKBP12 knock-out 293T cells (ELISA); assay type: cell-based, human; conditions: for selectivity for FKBP12 compared with RAD001 (in words): wild-type versus FKBP12 knock-out cells; for IC50 of inhibition of S6K1 (Thr389): FKBP12 knock-out 293T cells
In short: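 CRISPR-generated FKBP12 knock-out HEK293T cells, alongside wild-type, were treated in duplicate for 2 hours at 37 °C with an 8–11-point dose range (0.001 pM–10 μM). Phospho-S6K1 Thr389 quantified by ELISA as an mTORC1 activity read-out, with DMSO as negative control.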

[3] = In vitro microsomal metabolic stability, CD-1 mouse liver microsomes; assay type: in vitro ADME; conditions: for CLint scaled at 1 µM / microsomal CLint at 1 µM: CD-1, mouse, mouse liver microsomes, pH 7.2; for half-life at 1 µM: CD-1, pH 7.2, 0.5 mg/ml protein, NADPH; for half-life at 1 µM / Remaining (T = 60 min) / Remaining (T = NCF60 min): Mouse liver microsomes; for Remaining (T = 60 min): with NADPH; for Remaining (T = NCF60 min): without NADPH regenerating system; for Remaining (T = 60 min) / Remaining (T = NCF60 min): 60 min
In short: (§1)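 Compounds at 1 μM incubated at 37° C with pooled CD-1 mouse or human liver microsomes (0.5 mg/mL protein) plus NADPH regenerating system in 50 mM potassium phosphate, pH 7.2, 3.3 mM MgCl2; sampled at 0–60 min, 60-min no-NADPH control. Parent loss by LC/MS/MS analyte/IS peak-area ratio, n=1.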

[4] = In vitro microsomal metabolic stability, human liver microsomes; assay type: in vitro ADME; conditions: for Remaining (T = 60 min) / Remaining (T = NCF60 min) / half-life at 1 µM: Human liver microsomes; for Remaining (T = 60 min): with NADPH; for Remaining (T = NCF60 min): without NADPH regenerating system; for Remaining (T = 60 min) / Remaining (T = NCF60 min): 60 min; for microsomal CLint at 1 µM / CLint scaled at 1 µM: human, human liver microsomes; for microsomal CLint at 1 µM / half-life at 1 µM / CLint scaled at 1 µM: pH 7.2; for half-life at 1 µM: 0.5 mg/ml protein, NADPH
In short: as §1

[5] = Pharmacokinetic studies in male CD-1 mice (plasma, IV and PO); assay type: in vivo, mouse; conditions: male; for clearance / Vd / bioavailability: CD-1, plasma, mouse; for clearance / Vd / half-life: IV 2 mg/kg; for clearance: read-out: CI(mL/min/kg), compounds clearance following IV administration; for Vd: read-out: Vdss (L/kg), volume of distribution following IV administration; for bioavailability: PO 20 mg/kg vs IV 2 mg/kg; for half-life / Cmax / concentration at 8 h / concentration at 24 h: CD-1, mouse plasma; for half-life: read-out: IV T1/2 (converted); for Cmax / concentration at 8 h / concentration at 24 h: PO 20 mg/kg; for concentration at 8 h: read-out: Compound concentration at 8-hour, PO administration; for concentration at 24 h: read-out: Compound concentration at 24-hour, PO administration
Protocol: Animal experiments were carried out at Wuxi AppTec. Male 6-8 weeks old CDI mice were obtained from Hilltop Labs. Following arrival at Wuxi AppTec, mice were housed in animal rooms with environmental control (temperature: 20 to 26° C.; lighting: 12 hour light/dark cycle). Mice were fed with certified pellet diet (Certified Rodent Diet #5002 by LabDiet). Water was provided to the animals ad libitum. Mice were acclimated to the facility for at least 3 days prior to starting experiments.
Appropriate amount of test article formulated in 5% ethanol, 5% Tween-80 and 5% PEG-400, 85% water. Formulation was prepared on the day of dosing and dosed within 2 hours following preparation of formulations. Dose accuracy was determined by LC-MS/MS.
Dose formulation(s) were administered following facility SOPs. Dose volumes were determined individually prior to dosing based on animals' body weights.
About 40 μL of blood samples were collected via peripheral veins (e.g. saphenous veins) at each pre-defined time point. Blood samples were collected into tubes containing K2EDTA as anti-coagulant and kept on ice until centrifugation.
Blood samples were centrifuged at 4° C., 3000 g for 5 min within half an hour of collection. Plasma was transferred into polypropylene tubes or 96-well plates, promptly frozen on dry ice and stored at −70±10° C. until analysis by LC-MS/MS.
Test compound concentration in mouse plasma was determined with LC-MS/MS method using a calibration curve with at least 6 non-zero calibration standards.
The pharmacokinetics (PK) of the test article was analyzed using Phoenix WinNonlin software (version 8.3) and non-compartmental analysis model. Derived PK parameters include, but not limited to, C0, CLp, Vdss, Cmax, Tmax, T1/2, AUC(0-t), AUC(0-inf), MRT(0-t), MRT(0-inf) and % F (bioavailability).

CLint scaled at 1 µM [3] [mL/min/kg]	microsomal CLint at 1 µM [3] [µL/min/mg]	half-life at 1 µM [3] [h]	Remaining (T = 60 min) [3] [%]	Remaining (T = NCF60 min) [3] [%]	Remaining (T = 60 min) [4] [%]	Remaining (T = NCF60 min) [4] [%]	microsomal CLint at 1 µM [4] [µL/min/mg]	half-life at 1 µM [4] [h]	clearance [5] [mL/min/kg]	Vd [5] [L/kg]	bioavailability [5] [%]	half-life [5] [h]	Cmax [5] [ng/mL]	CLint scaled at 1 µM [4] [mL/min/kg]	SMILES	IC50 [1] [nM]	fold lower potency compared with RAD001 (by IC50) [1] [fold]	extent of inhibition of S6K1 (Thr389) phosphorylation [1]	inhibition of S6K1 (Thr389) phosphorylation in the absence of FKBP12 (in words) ([2]; FKBP12 knock-out cells)	selectivity for FKBP12 compared with RAD001 (in words) [2]	also measured
64.8	16.4	1.41	64.30	81.40	0.00	71.30	194	0.119	1.13	0.475	17	5.63	9180		CO[C@@H]1C[C@H](C[C@@H](C)[C@@H]2CC[C@H](C)/C=C(\C)[C@@H](O)[C@@H](OC)C(=O)[C@H](C)C[C@H](C)/C=C/C=C/C=C(\C)C(Nc3cnon3)C[C@@H]3CC[C@@H](C)[C@@](O)(O3)C(=O)C(=O)N3CCCCC3C(=O)O2)CC[C@H]1O (stereo partly drawn) [Compound 45, (3S,6S,7E,9R,10R,12R,14S,15E,17E,19E,23S,26R,27R,34aS)-21-((1,2,5-oxadiazol-3-yl)amino)-9,27-dihydroxy-3-((R)-1-((1S,3R,4R)-4-hydroxy-3-methoxycyclohexyl)propan-2-yl)-10-methoxy-6,8,12,14,20,26-hexamethyl-5,6,9,10,12,13,14,21,22,23,24,25,26,27,32,33,34,34a-octadecahydro-3H-23,27-epoxypyrido[2,1-c][1]oxa[4]azacyclohentriacontine-1,11,28,29(4H,31H)-tetraone]	8.4	~18	completely inhibit	much less inhibition of S6K1 phosphorylation	relatively more selective for FKBP12 compared with RAD001	fold less potent compared with RAD001 ([2]; FKBP12 knock-out cells, at similar level of inhibition): ~100 fold; inhibition at 10 µM ([2]; Homo sapiens, HEK-293T, FKBP12 knock-out cells, 10 μM (highest tested concentration)): ~25%; concentration at 8 h [5]: 1520 ng/mL; concentration at 24 h [5]: 239 ng/mL
41.9	10.6	2.18	69.80	92.30	6.60	92.80	89.9	0.257	2.31	0.828	28.5	5.25	4120	80.9	CO[C@@H]1CC(C[C@@H](C)[C@@H]2CC[C@H](C)/C=C(\C)[C@@H](O)[C@@H](OC)C(=O)[C@H](C)C[C@H](C)/C=C/C=C/C=C(\C)C(Nc3ccccc3)CC3CC[C@@H](C)[C@@](O)(O3)C(=O)C(=O)N3CCCC[C@H]3C(=O)O2)CC[C@H]1O (stereo partly drawn) [Compound 26, (3S,6S,7E,9R,10R,12R,14S,15E,17E,19E,23S,26R,27R,34aS)-9,27-dihydroxy-3-((R)-1-((1S,3R,4R)-4-hydroxy-3-methoxycyclohexyl)propan-2-yl)-10-methoxy-6,8,12,14,20,26-hexamethyl-21-(phenylamino)-5,6,9,10,12,13,14,21,22,23,24,25,26,27,32,33,34,34a-octadecahydro-3H-23,27-epoxypyrido[2,1-c][1]oxa[4]azacyclohentriacontine-1,11,28,29(4H,31H)-tetraone]	0.55		complete inhibition	not inhibit S6K1 at any tested concentrations	more selective to FKBP12 compared with RAD001	IC50 of inhibition of S6K1 (Thr389) [2]: not measurable/detectable; concentration at 8 h [5]: 1320 ng/mL; concentration at 24 h [5]: 184 ng/mL
65.7	16.6	1.39	59.40	106	19.40	84.00	52.8	0.438						47.5	CO[C@@H]1CC(C[C@@H](C)[C@@H]2CC[C@H](C)/C=C(\C)[C@@H](O)[C@@H](OC)C(=O)[C@H](C)C[C@H](C)/C=C/C=C/C=C(\C)C(Nc3cncc(C)n3)CC3CC[C@@H](C)[C@@](O)(O3)C(=O)C(=O)N3CCCC[C@H]3C(=O)O2)CC[C@H]1O (stereo partly drawn) [Compound 28, (3S,6S,7E,9R,10R,12R,14S,15E,17E,19E,23S,26R,27R,34aS)-9,27-dihydroxy-3-((R)-1-((1S,3R,4R)-4-hydroxy-3-methoxycyclohexyl)propan-2-yl)-10-methoxy-6,8,12,14,20,26-hexamethyl-21-((6-methylpyrazin-2-yl)amino)-5,6,9,10,12,13,14,21,22,23,24,25,26,27,32,33,34,34a-octadecahydro-3H-23,27-epoxypyrido[2,1-c][1]oxa[4]azacyclohentriacontine-1,11,28,29(4H,31H)-tetraone]	3		complete inhibition	behaved in a similar fashion to RAD001	not greater compared with RAD001	IC50 of inhibition of S6K1 (Thr389) [2]: not measurable/detectable
40.8	10.3	2.25	76	112	47	102	24.7	0.937						22.2	CCOc1cccc(NC2C[C@@H]3CC[C@@H](C)[C@@](O)(O3)C(=O)C(=O)N3CCCCC3C(=O)O[C@H]([C@H](C)C[C@@H]3CC[C@@H](O)[C@H](OC)C3)CC[C@H](C)/C=C(\C)[C@@H](O)[C@@H](OC)C(=O)[C@H](C)C[C@H](C)/C=C/C=C/C=C/2C)c1 (stereo partly drawn) [Compound 59, (3S,6S,7E,9R,10R,12R,14S,15E,17E,19E,23S,26R,27R,34aS)-21-((3-ethoxyphenyl)amino)-9,27-dihydroxy-3-((R)-1-((1S,3R,4R)-4-hydroxy-3-methoxycyclohexyl)propan-2-yl)-10-methoxy-6,8,12,14,20,26-hexamethyl-5,6,9,10,12,13,14,21,22,23,24,25,26,27,32,33,34,34a-octadecahydro-3H-23,27-epoxypyrido[2,1-c][1]oxa[4]azacyclohentriacontine-1,11,28,29(4H,31H)-tetraone]	0.17	2	near complete inhibition	inhibited the mTORC1 signaling in a dose dependent manner	relatively not FKBP12 selective	
